Data: ChEMBL document CHEMBL3351357, “The enantiomers of the 1',6'-isomer of neplanocin A: synthesis and antiviral properties” (Bioorg Med Chem, 2014)

Tests used:
[1] = Selectivity index, ratio of CC50 for human HG23 cells to EC50 for Norovirus; format: toxicity, cell-based; conditions: read-out: Selectivity Index
[2] = Selectivity index, ratio of CC50 for human HFF cells to EC50 for human cytomegalovirus; format: toxicity, cell-based; conditions: read-out: Selectivity Index
[3] = Selectivity index, ratio of CC50 for african green monkey Vero cells to EC50 for Measles virus; format: toxicity, cell-based; conditions: read-out: Selectivity Index
Human betaherpesvirus 5 = assay: Antiviral activity against human cytomegalovirus infected in HFF cells assessed as inhibition of viral-induced cytopathicity; format: functional, organism-based; conditions: Human betaherpesvirus 5, HFF
[4] = Selectivity index, ratio of CC50 for african green monkey Vero cells to EC50 for Dengue virus; format: toxicity, cell-based; conditions: read-out: Selectivity Index
[5] = Cytotoxicity against human HFF cells; format: cell-based
[6] = Inhibition of rabbit erythrocyte S-adenosylhomocysteine hydrolase; parameters: species or system Oryctolagus cuniculus
Norovirus = assay: Antiviral activity against Norovirus infected in HG23 cells assessed as inhibition of viral-induced cytopathicity; format: functional, cell-based
Vaccinia virus = assay: Antiviral activity against Vaccinia virus infected in HFF cells assessed as inhibition of viral-induced cytopathicity; format: functional, organism-based, Orthopoxvirus vaccinia
[7] = Selectivity index, ratio of CC50 for human HepG2.2.15 cells to EC90 for Hepatitis B virus; format: toxicity; conditions: read-out: Selectivity Index
Ebolavirus = assay: Antiviral activity against Ebolavirus Zaire infected in african green monkey Vero cells assessed as inhibition of viral-induced cytopathicity; format: functional, cell-based; conditions: Orthoebolavirus
Hepatitis B virus = assay: Antiviral activity against Hepatitis B virus infected in HepG2.2.15 cells assessed as inhibition of viral-induced cytopathicity; format: functional, organism-based, HepG2 2.2.15
[8] = Selectivity index, ratio of CC50 for african green monkey Vero cells to EC50 for Ebola virus Zaire virus; format: toxicity, cell-based; conditions: read-out: Selectivity Index
Dengue virus = assay: Antiviral activity against Dengue virus infected in african green monkey Vero cells assessed as inhibition of viral-induced cytopathicity; format: functional, organism-based
[9] = Selectivity index, ratio of CC50 for human HFF cells to EC90 for human cytomegalovirus; format: toxicity, cell-based; conditions: read-out: Selectivity Index
[10] = Cytotoxicity against human HG23 cells; format: cell-based
[11] = Cytotoxicity against african green monkey Vero cells; format: cell-based; conditions: chlorocebus sabaeus
[12] = Selectivity index, ratio of CC50 for human HFF cells to EC50 for Vaccinia virus; format: toxicity, cell-based; conditions: read-out: Selectivity Index
[13] = Selectivity index, ratio of CC50 for human HFF cells to EC90 for Vaccinia virus; format: toxicity, cell-based; conditions: read-out: Selectivity Index
[14] = Cytotoxicity against human HepG2.2.15 cells; format: cell-based, HepG2 2.2.15
Measles morbillivirus = assay: Antiviral activity against Measles virus infected in african green monkey Vero cells assessed as inhibition of viral-induced cytopathicity; format: functional, organism-based
[15] = Selectivity index, ratio of CC50 for human HepG2.2.15 cells to EC50 for Hepatitis B virus; format: toxicity; conditions: read-out: Selectivity Index
[16] = Selectivity index, ratio of CC50 for human HG23 cells to EC90 for Norovirus; format: toxicity, cell-based; conditions: read-out: Selectivity Index

## Nc1ncnc2c1ncn2C1=C[C@H](CO)[C@@H](O)[C@H]1O
[1]
  selectivity ratio: > 128
[2]
  selectivity ratio: 448
[3]
  selectivity ratio: > 3.5
Human betaherpesvirus 5
  EC50: 0.11 µM
  EC90: > 10 µM
[4]
  selectivity ratio: 17
[5]
  CC50: > 49.3 µM
[6]
  IC50: 0.0009 µM
Norovirus
  EC50: 0.784 µM
Vaccinia virus; Orthopoxvirus vaccinia, HFF
  EC90: > 300 µM
Vaccinia virus; Orthopoxvirus vaccinia, HFF, read-out: EC50
  EC50: 10.1 µM
[7]
  selectivity ratio: > 3
Ebolavirus
  EC50: 0.38 µM
Hepatitis B virus; Hepatitis B virus, HepG2 2.2.15
  EC90: 35 µM
Hepatitis B virus; Hepatitis B virus, HepG2 2.2.15, read-out: EC50
  EC50: 7.2 µM
[8]
  selectivity ratio: 3.5
Dengue virus
  EC50: 1.1 µM
[9]
  selectivity ratio: < 4
[10]
  CC50: > 100 µM
[11]
  CC50: 1.3 µM
[12]
  selectivity ratio: > 30
[13]
  selectivity ratio: 1
[14]
  CC50: > 100 µM
Measles morbillivirus
  EC50: < 0.38 µM
[15]
  selectivity ratio: > 14
[16]
  selectivity ratio: > 11

## Nc1ncnc2c1ncn2C1=C[C@@H](CO)[C@H](O)[C@@H]1O
Human betaherpesvirus 5
  EC50: 3.7 µM
  EC90: 6.86 µM
Norovirus
  EC50: 11 µM
  EC90: 89 µM
Vaccinia virus; hff
  EC50: Not Active
Ebolavirus
  EC50: 0.76 µM
Hepatitis B virus; hepg2 2.2.15
  EC50: Not Active
Dengue virus
  EC50: 1.3 µM
[10]
  CC50: > 300 µM
[11]
  CC50: 11.4 µM
Measles morbillivirus
  EC50: 0.72 µM

## Nc1ncnc2c1ncn2[C@@H]1C=C(CO)[C@@H](O)[C@H]1O [NEOPLANOCIN A]
[6]
  IC50: 0.0009 µM
